Earlier results, collected in patent US20150299125A1, “PRODRUG BIPYRIDYLAMINOPYRIDINES AS SYK INHIBITORS” (MERCK SHARP & DOHME CORP., priority 2012, published 2015).

Key:
[1] = phase II clinical trial for allergic rhinitis; cited from earlier work
[2] = dosed intranasally, phase I/II study, allergic rhinitis; cited from earlier work

SMILES: Oc1cccc(Nc2ncc(F)c(Nc3cccc(O)c3)n2)c1 [Example R112]
- efficacy versus placebo [1]: lack of efficacy versus placebo
- PGD2 [2]: statistically significant decrease
- clinical safety [2]: safe across a range of indicators
